# Experimental data from patent US7514428B2, “Pesticidal 1-aryl-3-amidoxime-pyrazole derivatives” (Merial Limited, priority 2002, dated 2009).
# Tested on: Ctenocephalides felis, Diabrotica undecimpunctata, Nephotettix cincticeps, Rhipicephalus sanguineus
# Assay: Parasiticidal and pesticidal tests, Methods A to E taken together (active in one or more of the tests, test not specified)
# Type: in vivo
# Settings: active = at least 90% control (A, 5 ppm or less), 90% (B, 10 ppm), 98% mortality (C, 100 ppm), 70% (D, 1000 ppm) or 70% (E, 100 ppm); test not given per compound
# Protocol: The following representative test procedures, using compounds of the invention, were conducted to determine the parasiticidal and pesticidal activity of compounds of the invention.
# Method A: Screening Method to Test Systemicity of Compounds Against Ctenocephalides Felis (Cat Flea)
# A test container was filled with 10 adults of Ctenocephalides felis. A glass cylinder was closed on one end with parafilm and placed on top of the test container. The test compound solution was then pipetted into bovine blood and added to the glass cylinder. The treated Ctenocephalides felis were held in this artificial dog test (blood 37° C., 40-60% relative humidity; Ctenocephalides felis 20-22° C., 40-60% relative humidity) and assessment performed at 24 and 48 hours after application.
# Active compounds gave at least 90% control of Ctenocephalides felis at a test concentration of 5 ppm or less.
# Method B: Diabrotica Undecimpunctata (Southern Corn Rootworm) Screen
# Two days before application, seeds of maize were soaked in water under warm conditions to elicit fast germination. One day before application, eggs of Diabrotica undecimpunctata were transferred to one half of a Japanese filter paper placed in a plastic petri dish. Afterwards, a sprouted maize seed was placed on a moistened pad beside the filter paper. Three drops of 200 microlitres of test compound solution were carefully pipetted onto the egg. The remainder of the solution was placed on the maize and then the Petri dish was closed. The treated eggs in the Petri dishes were held in a climate chamber for 6 days. The compound efficacy (percentage of dead eggs and/or larvae in comparison to untreated control) was assessed 6 days after application using a binocular microscope. […]
# The leaves of 12 rice plants having a stem length of 8 cm were dipped for 5 seconds into an aqueous solution of the formulated test compound. […] After 6 days storage, the percentage mortality of leafhopper larvae was determined. […]
# Solutions of the test compounds were dropped onto filter paper, dried and the filter paper placed into test tubes and infested with 10 adults of Ctenocephalides felis. The treated Ctenocephalides felis were held in a climate chamber (26° C., 80% RH) and the percentage efficacy assessed 24 hours and 48 hours after application in comparison with the untreated control. […]
# Solutions of the test compounds were dropped onto filter paper, dried and the filter paper placed into test tubes and infested with 20-30 larvae (L1) of Rhipicephalus sanguineus and the tubes closed with a clip. The treated Rhipicephalus sanguineus were held in a climate chamber (25° C., 90% RH) and the percentage efficacy assessed 24 hours after application in comparison with the untreated control. […]
row,SMILES,active in one or more of the above tests
1,"CNc1c(S(=O)(=O)C(F)(F)F)c(C(N)=NOCc2ccccc2)nn1-c1c(Cl)cc(C(F)(F)F)cc1Cl [Compound 1-49, 1-(2,6-Dichloro-4-trifluoromethylphenyl)-3-(N-benzyloxy-2-amidino)-5-methylamino-4-trifluoromethylsulfonylpyrazole]",active
2,"CNc1c([S+]([O-])C(F)(F)F)c(C(=N)N(C)OCc2c(Cl)cccc2Cl)nn1-c1c(Cl)cc(C(F)(F)F)cc1Cl (stereo not shown) [Compound 4-82, 1-(2,6-Dichloro-4-trifluoromethylphenyl)-3-[N-(2,6-dichlorobenzyloxy)-N-methyl-2-amidino]-5-methylamino-4-trifluoromethylsulfinylpyrazole]",active
3,"CNc1c([S+]([O-])C(F)(F)F)c(C(=N)N(C)OCc2ccc(C(F)(F)F)cc2)nn1-c1c(Cl)cc(C(F)(F)F)cc1Cl (stereo not shown) [Compound 4-93, 1-(2,6-Dichloro-4-trifluoromethylphenyl)-3-[N-methyl-N-(4-trifluoromethylbenzyloxy)-2-amidino]-5-methylamino-4-trifluoromethylsulfinylpyrazole]",active
4,"CNc1c(S(=O)(=O)C(F)(F)F)c(C(=N)N(C)OCc2ccc(C(F)(F)F)cc2)nn1-c1c(Cl)cc(C(F)(F)F)cc1Cl [Compound 4-128, 1-(2,6-Dichloro-4-trifluoromethylphenyl)-3-[N-methyl-N-(4-trifluoromethylbenzyloxy)-2-amidino]-5-methylamino-4-trifluoromethylsulfonylpyrazole]",active
